Here are results for eight molecules from patent publication US9382255B2, “Substituted pyrrolopyrimidinylamino-benzothiazolones as MKNK kinase inhibitors” (BAYER PHARMA AKTIENGESELLSCHAFT, priority 2012, dated 2016).

This assay addresses T1, human full-length MKNK1 (Homo sapiens, UniProt Q9BUB5, T385D).
T1 construct: GST (N); purchased Carna Biosciences 02-145; host or cells: insect cells (baculovirus expression system)
Put plainly: MKNK1 kinase high ATP assay (TR-FRET). The class given is biochemical. The settings on record: high ATP (2 mM final), 15 min preincubation with enzyme, GST-MKNK1 (T344D). As for the experimental part: MKNK1 Kinase High ATP Assay
MKNK1-inhibitory activity at high ATP of compounds of the present invention after their preincubation with MKNK1 was quantified employing the TR-FRET-based MKNK1 high ATP assay as described in the following paragraphs.
A recombinant fusion protein of Glutathione-S-Transferase (GST, N-terminally) and human full-length MKNK1 (amino acids 1-424 and T344D of accession number BAA 19885.1), expressed in insect cells using baculovirus expression system and purified via glutathione sepharose affinity chromatography, was purchased from Carna Biosciences (product no 02-145) and used as enzyme. As substrate for the kinase reaction the biotinylated peptide biotin-Ahx-IKKRKLTRRKSLKG (C-terminus in amide form) was used, which can be purchased e.g. from the company Biosyntan (Berlin-Buch, Germany).
For the assay 50 nL of a 100 fold concentrated solution of the test compound in DMSO was pipetted into a black low volume 384 well microtiter plate (Greiner Bio-One, Frickenhausen, Germany), 2 μL of a solution of MKNK1 in aqueous assay buffer [50 mM HEPES pH 7.5, 5 mM MgCL2, 1.0 mM dithiothreitol, 0.005% (v/v) Nonidet-P40 (Sigma)] was added and the mixture was incubated for 15 min at 22° C. to allow pre-binding of the test compounds to the enzyme before the start of the kinase reaction. Then the kinase reaction was started by the addition of 3 μL of a solution of adenosine-tri-phosphate (ATP, 3.3 mM=>final conc. in the 5 μL assay volume is 2 mM) and substrate (0.1 μM=>final conc. in the 5 μL assay volume is 0.06 μM) in assay buffer and the resulting mixture was incubated for a reaction time of 30 min at 22° C. The concentration of MKNK1 was adjusted depending of the activity of the enzyme lot and was chosen appropriate to have the assay in the linear range, typical concentrations were in the range of 0.003 μg/mL. The reaction was stopped by the addition of 5 μL of a solution of TR-FRET detection reagents (5 nM streptavidine-XL665 [Cisbio Bioassays, Codolet, France] and 1 nM anti-ribosomal protein S6 (pSer236)-antibody from Invitrogen [#44921G] and 1 nM LANCE EU-W1024 Labeled ProteinG [Perkin-Elmer, product no. AD0071]) in an aqueous EDTA-solution (100 mM EDTA, 0.1% (w/v) bovine serum albumin in 50 mM HEPES pH 7.5).
The resulting mixture was incubated for 1 h at 22° C. to allow the formation of complex between the phosphorylated biotinylated peptide and the detection reagents. Subsequently the amount of phosphorylated substrate was evaluated by measurement of the resonance energy transfer from the Eu-chelate to the streptavidine-XL. Therefore, the fluorescence emissions at 620 nm and 665 nm after excitation at 350 nm were measured in a TR-FRET reader, e.g. a Rubystar (BMG Labtechnologies, Offenburg, Germany) or a Viewlux (Perkin-Elmer). The ratio of the emissions at 665 nm and at […] was taken as the measure for the amount of phosphorylated substrate. The data were normalised (enzyme reaction without inhibitor=0% inhibition, all other assay components but no enzyme=100% inhibition).
A general note: In TR-FRET formats the signal depends on donor and acceptor labels being close together.

T1 sequence (Q9BUB5 1-424 isoform Q9BUB5-2 T344D): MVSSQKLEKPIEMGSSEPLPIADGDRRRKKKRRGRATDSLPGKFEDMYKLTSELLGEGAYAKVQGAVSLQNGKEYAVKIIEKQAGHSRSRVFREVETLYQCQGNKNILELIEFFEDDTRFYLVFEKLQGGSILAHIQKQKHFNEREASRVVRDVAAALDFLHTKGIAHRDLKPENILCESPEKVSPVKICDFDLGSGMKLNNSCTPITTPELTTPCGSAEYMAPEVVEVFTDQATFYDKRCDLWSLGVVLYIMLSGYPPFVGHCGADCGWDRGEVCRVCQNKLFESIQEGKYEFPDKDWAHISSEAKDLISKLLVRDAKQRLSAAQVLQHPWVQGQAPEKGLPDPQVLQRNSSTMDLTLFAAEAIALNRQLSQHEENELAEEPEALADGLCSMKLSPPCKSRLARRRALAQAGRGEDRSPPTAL

The IC50 is the concentration at which inhibition is half-maximal. A lower IC50 goes with higher potency. As for `O=C(c1[nH]c2ncnc(Nc3ccc4[nH]c(=O)sc4c3)c2c1Br)N1CCCCC1` [Example 33, 6-{[5-Bromo-6-(piperidin-1-ylcarbonyl)-7H-pyrrolo[2,3-d]pyrimidin-4-yl]amino}-1,3-benzothiazol-2(3H)-one], the IC50 worked out at 24 nM. The result for `CCOC(=O)c1cc2c(Nc3ccc4[nH]c(=O)sc4c3)ncnc2[nH]1` [Example 10, Ethyl 4-[(2-oxo-2,3-dihydro-1,3-benzothiazol-6-yl)amino]-7H-pyrrolo[2,3-d]pyrimidine-6-carboxylate] reads 2 nM; that for `O=c1[nH]c2ccc(Nc3ncnc4[nH]cnc34)cc2s1` [Example 9, 6-(9H-Purin-6-ylamino)-1,3-benzothiazol-2(3H)-one], 11 nM; that for `C[C@H]1COCCN1C(=O)c1cc2c(Nc3ccc4[nH]c(=O)sc4c3)ncnc2[nH]1` [Example 35], 47 nM. The result for `O=c1[nH]c2ccc(Nc3ncnc4[nH]ccc34)cc2s1` [Example 6, 6-(7H-Pyrrolo[2,3-d]pyrimidin-4-ylamino)-1,3-benzothiazol-2(3H)-one] reads 19 nM; that for `CN(C)C1CCN(C(=O)c2cc3c(Nc4ccc5[nH]c(=O)sc5c4)ncnc3[nH]2)CC1` [Example 31, 6-[(6-{[4-(Dimethylamino)piperidin-1-yl]carbonyl}-7H-pyrrolo[2,3-d]pyrimidin-4-yl)amino]-1,3-benzothiazol-2(3H)-one], 40 nM; that for `CN(C)C(=O)c1c[nH]c2ncnc(Nc3ccc4[nH]c(=O)sc4c3)c12` [Example 20, N,N-dimethyl-4-[(2-oxo-2,3-dihydro-1,3-benzothiazol-6-yl)amino]-7H-pyrrolo[2,3-d]pyrimidine-5-carboxamide], 15 nM.

In turn, `COc1cc2[nH]c(=O)sc2cc1Nc1ncnc2[nH]ccc12` [Example 19, 5-Methoxy-6-(7H-pyrrolo[2,3-d]pyrimidin-4-ylamino)-1,3-benzothiazol-2(3H)-one] registered an IC50 of 11 nM.
